Results: patent US20050197292A1, “Compositions and methods for treating T-cell mediated pathological conditions” (priority 2004, published 2005)

Legend:
[1] = tested on: CD8 T cells; test: TCR-CD28 co-stimulated proliferation, [3H] thymidine incorporation, CD8 T cells; assay type: cell-based, human; settings: anti-CD3 150 ng/ml and anti-CD28 1 μg/ml coated, 72 h
Procedure: (§1) 96-well plates were coated with the anti-CD3 and anti-CD28 mAb at 150 ng/ml and 1 μg/ml respectively in PBS overnight at 4° C., aspirated and coated with the control protein, CG57008-15, CG57008-12 or CG57008-14 for 4 hr at 37° C. Wells were aspirated and 150 μl of purified Human CD4+, CD8+ or polarized TH2 cells from healthy blood donors, or purified CD4+ or CD8+ T cells from B6 mice at a concentration of 0.7×10^6 cells/ml were added and cultured for 72 h at 37° C. Proliferation was measured by [^3H] thymidine incorporation by pulsing cells with 0.5 μCi of [^3H] thymidine 8 hr prior to harvesting. Cytokines were measured by ELISA using cells harvested at 72 hr.

[2] = tested on: CD4 T cells; test: TCR-CD28 co-stimulated proliferation, [3H] thymidine incorporation, CD4 T cells; assay type: cell-based, human; settings: anti-CD3 150 ng/ml and anti-CD28 1 μg/ml coated, 72 h
Procedure: as §1

## CG201877-02 (ECD/FC): Tim1 - Mus musculus; Mature Igkappa, ECD, Fc, V5, His
[1]
  proliferation of CD8 T cells: significantly inhibited
[2]
  proliferation of CD4 T cells: significantly inhibited
